Assay results published in patent publication US8367662B2, “Organic compounds” (Novartis AG, priority 2007, dated 2013).

T1: human ALK5 (ALK5 T204D kinase domain) (Homo sapiens, UniProt P36897, T204D)
T1 construct: The kinase domain of human ALK5 (amino acids 200-503); made in house; host or cells: insect cells (baculovirus)
T1 sequence (P36897 200-503 T204D): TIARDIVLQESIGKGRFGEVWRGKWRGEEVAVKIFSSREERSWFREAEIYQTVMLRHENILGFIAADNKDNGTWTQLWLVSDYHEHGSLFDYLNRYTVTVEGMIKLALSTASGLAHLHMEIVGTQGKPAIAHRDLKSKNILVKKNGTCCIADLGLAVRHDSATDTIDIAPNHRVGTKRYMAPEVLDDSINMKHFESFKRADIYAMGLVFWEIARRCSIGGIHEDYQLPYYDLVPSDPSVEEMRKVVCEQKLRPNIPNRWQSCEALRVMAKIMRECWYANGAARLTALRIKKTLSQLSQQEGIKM


Test system: dimethylnitrosamine induced liver fibrosis
Assay: not given
Settings: rat, during the 3 weeks treatment; cited from earlier work

Molecule	side effects
c1ccc(-c2cc(-c3cn[nH]c3-c3ccccn3)ccn2)cc1 [GW6604]	no obvious side effects

Same assay, conditions: rat, given therapeutically, dimethylnitrosamine induced liver fibrosis; cited from earlier work

Molecule	death rate prevented [%]	inhibition of extracellular matrix deposition [%]
c1ccc(-c2cc(-c3cn[nH]c3-c3ccccn3)ccn2)cc1 [GW6604]	40	60

Test system: bleomycin-treated rats
Assay: not given
Settings: cited from earlier work

Molecule	lung fibrosis	number of macrophages and neutrophils in bronchoalveolar lavage
follistatin: an antagonist of activin signalling (protein, UniProt P19883 30-344, looked up) Follistatin: GNCWLRQAKNGRCQVLYKTELSKEECCSTGRLSTSWTEEDVNDNTLFKWMIFNGGAPNCIPCKETCENVDCGPGKKCRMNKKNKPRCVCAPDCSNITWKGPVCGLDGKTYRNECALLKARCKEQPELEVQYQGRCKKTCRDVFCPGSSTCVVDQTNNAYCVTCNRICPEPASSEQYLCGNDGVTYSSACHLRKATCLLGRSIGLAYEGKCIKAKSCEDIQCTGGKKCLWDFKVGRGRCSLCDELCPDSKSDEPVCASDNATYASECAMKEAACSSGVLLEVKHSGSCNSISEDTEEEEEDEDQDYSFPISSILEW	attenuated lung fibrosis	significantly reduced

Molecular target: T1, human ALK5 (ALK5 T204D kinase domain)
Assay: ALK5 kinase assay: [33P] phosphate incorporation into casein
Assay type: biochemical
Settings: casein substrate, 1 μM unlabelled ATP
Protocol: The kinase activity of ALK5 is assessed by measuring radiolabelled phosphate [33P] incorporation in to the generic substrate, casein. The kinase domain of human ALK5 (amino acids 200-503) is fused to an N-terminal histidine tag. The kinase activity of ALK5 is rendered constitutive via point mutation at amino acid 204 (threonine to aspartate modification, ALK5 T204D) and the kinase construct is engineered to be expressed from a baculovirus expression construct in insect cells. The purified, recombinantly-expressed histidine-tagged ALK5 T204D protein is dissolved at 5.4 mg/ml in 50 mM Tris-HCl pH 8.0, 150 mM NaCl, 5 mM DTT. ALK5 T204D is dissolved to 2.5 μg/ml in assay buffer (Assay buffer: 20 mM Tris-HCl pH 7.4, 10 mM MgCl2, 2 mM MnCl2) on the day of use.
Test compounds and reference compounds are dissolved in assay buffer without DTT containing 5% (v/v) DMSO. Stock solutions of test and reference compounds are diluted in assay buffer with DTT (1.25 mM) containing 4.5% (v/v) DMSO. 10 μl of test or reference compound are added to the appropriate wells of 96 well U-bottomed plate. Total enzyme activity is determined by measuring ALK5 T204D activity in the absence of ALK5 kinase inhibitor reference compounds. Non-specific binding (NSB) is determined by measuring the activity of ALK5 T204D in the presence of ALK5 kinase inhibitor reference compounds. 10 μl of dephosphorylated casein stock solution (dephosphorylated casein is dissolved in ddH2O at 20 mg/ml) is added per well (200 μg/well final assay concentration). 20 μl of ALK5 T204D (2.5 μg/ml solution) is added per well (50 ng/well final assay concentration). The plates are left to incubate at room temperature for 10 minutes.
10 μl of ATP mix is added to the well to initiate the reaction (0.66 nM [^33P]ATP/1 μM unlabelled ATP/well final assay concentration). The ATP mix is prepared as follows, unlabelled ATP (3 mM) is dissolved in ddH2O and pH adjusted to 7.4. The stock concentration of [^33P]ATP is 10 μCi/μl. The appropriate volume of [^33P]ATP is added to unlabelled ATP solution such that the final assay concentration per well is 0.1 μCi. Following addition of the ATP mix, the plates are incubated at room temperature for 50 minutes. The kinase reaction is terminated by the addition of 50 μL Stop Buffer (20 mM Tris-HCl pH 7.4, 10 mM EDTA).
75 μ/well from the reaction plate is transferred to a Multiscreen-IP plate (MultiScreen-IP plates are prepared by added 50 μL of 70% (v/v) ethanol per well and incubated for 5 minutes at room temperature. The ethanol is removed by aspiration via a MultiScreen HTS Vaccum Manifold unit (Millipore, Cat no: MSVMHT500). The plates are washed twice by adding 200 μl/well ddH2O). The MultiScreen-IP plate is incubated at room temperature for 30 minutes to allowing binding of casein to the plate. The MultiScreen-IP plates are washed three times by adding 200 μl/well 100 mM phosphoric acid solution and the gasket is carefully removed from the back of the MultiScreen-IP plate and the plate dried in the oven for 30 minutes. The MultiScreen-IP plate is backsealed, 50 μL of Microscint®20 is added, then the plates are topsealed and radiolabelled casein detected and quantified on a TopCount™ plate-reader using the ^33P scintillation protocol.

Molecule	IC50 [nM]
c1cncc(-c2ccn3c(-c4cccc(-n5cccn5)c4)cnc3c2)c1 [Example 1.1, 3-(3-Pyrazol-1-yl-phenyl)-7-pyridin-3-yl-imidazo[1,2-a]pyridine]	4
c1ccc(-c2cc(-c3cnc4cc(-c5ccc(N6CCOCC6)nc5)ccn34)ccn2)cc1 [Example 1.5, 7-(6-Morpholin-4-yl-pyridin-3-yl)-3-(2-phenyl-pyridin-4-yl)-imidazo[1,2-a]pyridine]	8
O=Cc1cccc(-c2ccn3c(-c4cccc(-n5cccn5)c4)cnc3c2)c1 [Example 1.9, 3-[3-(3-Pyrazol-1-yl-phenyl)-imidazo[1,2-a]pyridin-7-yl]-benzaldehyde]	86
CNC(=O)c1cccc(-c2ccn3c(-c4ccnc(-c5cccc(F)c5)c4)cnc3c2)c1 [Example 1.13, 3-{3-[2-(3-Fluoro-phenyl)-pyridin-4-yl]-imidazo[1,2-a]pyridin-7-yl}-N-methyl-benzamide]	55
Fc1cccc(-c2cc(-c3cnc4cc(-c5cccnc5)ccn34)ccn2)c1 [Example 1.17, 3-[2-(3-Fluoro-phenyl)-pyridin-4-yl]-7-pyridin-3-yl-imidazo[1,2-a]pyridine]	76
CNC(=O)c1cccc(-c2ccn3c(-c4ccnc(-n5ccc(C)n5)c4)cnc3c2)c1 [Example 1.23, N-Methyl-3-{3-[2-(3-methyl-pyrazol-1-yl)-pyridin-4-yl]-imidazo[1,2-a]pyridin-7-yl}-benzamide]	77
Fc1ccccc1-c1cc(-c2cnc3cc(-c4cccnc4)ccn23)ccn1 [Example 1.30, 3-[2-(2-Fluoro-phenyl)-pyridin-4-yl]-7-pyridin-3-yl-imidazo[1,2-a]pyridine]	47
O=Cc1cccc(-c2ccn3c(-c4ccnc(N5CCCC5)c4)cnc3c2)c1 [Example 1.46, 3-[3-(2-Pyrrolidin-1-yl-pyridin-4-yl)-imidazo[1,2-a]pyridin-7-yl]-benzaldehyde]	52
COc1cc(-c2cnc3ccc(N[C@H]4CC[C@H](O)CC4)cn23)ccn1 [Example 2.2]	108
CCOc1cc(-c2cnc3ccc(N[C@H]4CC[C@H](O)CC4)cn23)ccn1 [Example 2.7]	281
c1cc(-c2cnc3ccc(-c4ccoc4)cn23)cc(-c2ccoc2)n1 [Example 2.12, 6-Furan-3-yl-3-(2-Furan-3-yl-pyridin-4-yl)-imidazo[1,2-a]pyridine]	147
CNC(=O)c1ccc(-c2ccc3ncc(-c4ccnc(-c5ccoc5)c4)n3c2)cc1 [Example 2.18, 4-[3-(2-Furan-3-yl-pyridin-4-yl)-imidazo[1,2-a]pyridin-6-yl]-N-methyl-benzamide]	57
CS(=O)(=O)Nc1cccc(-c2ccc3ncc(-c4ccnc(-c5ccoc5)c4)n3c2)c1 [Example 2.20, N-{3-[3-(2-Furan-3-yl-pyridin-4-yl)-imidazo[1,2-a]pyridin-6-yl]-phenyl}-methanesulfonamide]	97
